Measured values: US9005577B2, “Substrate based PET imaging agents” (Siemens Medical Solutions USA, Inc., priority 2008, dated 2015)
Square brackets hold non-standard residues; d marks the D form. Peptide text beside a SMILES is read from it. * marks the point of attachment. PEG4 = NCCOCCOCCOCCOCCC(=O)O; X1 = O=C(Cn1cc(CCCF)nn1)*

What was measured:
Assay type in all cases: cell-based, human
U87 [1] = test: Cold [19F] standard compound uptake in cells treated with apoptotic inducer, LC/MS (U87); details: cold standard compound 10 μM, 2 h, 1 mM 5FU for 2 days, % uptake normalized per mg protein extract
Method: (§1) When cells grown in 6-well plates reached 80% confluence, the growth medium was replaced with 2 ml of fresh medium containing 1 mM of 5FU. After two days of apoptotic induction, the standard compound was added into the cultures (control and 5FU treated) at a final concentration of 10 μM. The cells were cultured in the incubator for 2 hours for compound uptake. Then, (in the case of experiments involving the use of caspase-3 inhibitors as blockers, the inhibitor was added to the cells 1 hour early before the addition of standard compound). 100 μl of cell culture medium for each sample was collected, and the cells were harvested by centrifugation. Cell pellets were washed twice with 1×PBS, and lysed in 100 μl of lysis buffer. Both cell lysate and medium were boiled for 5 minutes to denature proteins, cooled down on ice, then 100 μl of chloroform/methanol (50/50 ratio) were added. After vortexing and extraction, the samples were centrifuged in Eppendorf tubes in a micro centrifuge at 13000 rpm for 15 minutes at 4 C. 50 μl of the supernatant was transferred to an HPLC vial. The amounts of compound (or product of caspase-3 cleavage) inside the cells and in the medium were measured by LC/MS. The % uptake=total amount of cell uptake/total amount of compound X 100%. The % uptake was normalized by the amount of cellular protein extract (mg): % Uptake/mg protein extracts.

A498 [2] = test: Cold [19F] standard compound uptake in cells treated with apoptotic inducer, LC/MS (A498); details: cold standard compound 10 μM, 2 h, 1 mM 5FU for 2 days, % uptake normalized per mg protein extract
Method: as §1

HT29 [3] = test: Cold [19F] standard compound uptake in cells treated with apoptotic inducer, LC/MS (HT29); details: cold standard compound 10 μM, 2 h, 1 mM 5FU for 2 days, % uptake normalized per mg protein extract
Method: as §1

H2122 = test: Cold [19F] standard compound uptake in cells treated with apoptotic inducer, LC/MS (H2122); details: cold standard compound 10 μM, 2 h, 1 mM 5FU for 2 days, % uptake normalized per mg protein extract
Method: as §1

U87 [4] = test: [18F]-tracer compound uptake in cancer cell lines treated with apoptotic inducer 5FU (U87); details: [18F]-tracer 10 μCi/well, 2 h incubation, 1 mM 5FU for 2 days; % uptake normalized per mg protein extract
Method: (§2) Cells grown overnight and having reached about 80% confluence in 6-well plates were exposed to 1 mM of apoptotic inducer 5FU for 2 days in a cell culture incubator. The [18F]-labeled tracer was added into each well (triplicates for control and 5FU treated) at 10 μCi/well. (in case of experiments involving the use of caspase-3 inhibitors as blockers, the inhibitor was added to the cells 1 hour before the addition of the [18F]-tracer). The cells were then incubated for two hours. Cells were collected by scrape and centrifugation. Cell pellets were washed twice with 1λ PBS. The amount of tracer inside the cells and in the medium was measured by y-counter. The % Uptake=total CPM inside cells/total tracer CPM×100%. The % Uptake was normalized by the amount of cellular protein extract (mg): % uptake/mg protein extracts.

A498 [5] = test: [18F]-tracer compound uptake in cancer cell lines treated with apoptotic inducer 5FU (A498); details: [18F]-tracer 10 μCi/well, 2 h incubation, 1 mM 5FU for 2 days; % uptake normalized per mg protein extract
Method: as §2

HT29 [6] = test: [18F]-tracer compound uptake in cancer cell lines treated with apoptotic inducer 5FU (HT29); details: [18F]-tracer 10 μCi/well, 2 h incubation, 1 mM 5FU for 2 days; % uptake normalized per mg protein extract
Method: as §2

Structure (SMILES) | percent uptake U87 (U87 [1]) | percent uptake A498 (A498 [2]) | percent uptake HT29 (HT29 [3]) | percent uptake H2122 (H2122) | percent uptake U87 (U87 [4]) | percent uptake A498 (A498 [5]) | percent uptake HT29 (HT29 [6])
CC(C)[C@H](NC(=O)[C@H](CCC(=O)O)NC(=O)[C@H](CC(=O)O)NC(=O)Cn1cc(CCCF)nn1)C(=O)N[C@@H](CC(=O)O)C(=O)N[C@@H](C)C(=O)NCCOCCOCCOCCOCCC(=O)O [Compound 21] (X1-DEVDA[PEG4]-OH) | 2.0% | 2.1% | 1.1% | 1.3% | – | – | –
CC(C)[C@H](NC(=O)[C@H](CCC(=O)O)NC(=O)[C@H](CC(=O)O)NC(=O)Cn1cc(CCCF)nn1)C(=O)N[C@@H](CC(=O)O)C(=O)NCC(=O)N[C@@H](CCCCN)C(=O)N[C@@H](CCCCN)C(=O)N[C@@H](CCCCN)C(=O)N[C@@H](CCCCN)C(N)=O [Compound 27] (X1-DEVDGKKKK-NH2) | 2.5% | 4.5% | 1.7% | 2.0% | – | – | –
CC(C)[C@H](NC(=O)[C@H](CCC(=O)O)NC(=O)[C@H](CC(=O)O)NC(=O)Cn1cc(CCC[18F])nn1)C(=O)N[C@@H](CC(=O)O)C(=O)N[C@@H](C)C(=O)NCCOCCOCCOCCOCCC(=O)O [^18F-21] | – | – | – | – | 2.1% | 1.8% | 2.1%
CC(C)[C@H](NC(=O)[C@H](CCC(=O)O)NC(=O)[C@H](CC(=O)O)NC(=O)C1OC(CNC(=O)Cn2cc(CCC[18F])nn2)C(O)C(O)C1O)C(=O)N[C@@H](CC(=O)O)C(=O)NCC(N)=O (stereo partly drawn) [^18F-49] | – | – | – | – | – | 1.5% | –
CC(C)[C@H](NC(=O)[C@H](CCC(=O)O)NC(=O)[C@H](CC(=O)O)NC(=O)C1OC(CNC(=O)Cn2cc(CCC[18F])nn2)C(O)C(O)C1O)C(=O)N[C@@H](CC(=O)O)C(=O)N[C@@H](C)C(=O)NCCOCCOCCOCCOCCC(=O)O (stereo partly drawn) [^18F-56] | – | – | – | – | 2.1% | 2.1% | 1.9%
